The first test deals with lupus-prone MRL lpr/lpr mice. The experiment in a line: Mouse lupus disease model, anti-dsDNA IgG titers (ELISA). In kind it is in vivo. As to conditions: female MRL/lpr mice; 10 mg/kg once daily oral; 9 weeks; 10 mg/kg. The protocol: Mouse Lupus Disease Model
Examples B6 and B11 were tested in well studied mouse model of lupus, lupus-prone MRL lpr/lpr mice that develop disease similar to human SLE [J Exp Med., 1978, 148 (5), 1198-1215]. These mice develop spontaneous systemic autoimmunity with both molecular (IFN signature) and clinical (autoantibody production and glomerulonephritis) features similar to human SLE. Anti-dsDNA antibodies are correlated with human SLE and the reduction in anti-dsDNA antibodies is believed to be of potential clinical benefit. Positive TLR7 and/or TLR9 target validation results have been reported for this disease model.
Mouse Lupus Disease Model Strain:
Female MRL/lpr mice were purchased from Jackson Laboratories (USA) which manifest spontaneous lupus disease. Female MRL/lpr mice were treated for 9 weeks by oral route once a day with TLR-7/9 antagonists [Examples B6 and B11] at 3, 10 and 30 mg/kg doses. Prednisolone (2 mg/kg, P.O., QD) was used as a positive control during the studies. At the end of treatment period, animals were sacrificed and blood samples were collected to estimate anti-dsDNA IgG titers using anti-dsDNA IgG ELISA kit, Alpha Diagnostics, USA.
In general terms: ELISA stands for enzyme-linked immunosorbent assay.
Take `Cc1nc(-c2ccc(N3CCN(C(C)C)CC3)cc2)c2cc(CCN3CCOCC3)[nH]c2c1C` [Example B6, 4-[2-[4-[4-(4-isopropylpiperazin-1-yl)phenyl]-6,7-dimethyl-1H-pyrrolo[3,2-c]pyridin-2-yl]ethyl]morpholine]: the “anti-dsDNA IgG after 9 weeks of treatment” value is listed as “Significant reduction”.

The test is the same for the next values; noted with them: female MRL/lpr mice; oral QD; 3, 10 and 30 mg/kg; 6 weeks.
In the case of `Cc1nc(-c2ccc(N3CCN(C(C)C)CC3)cc2)c2cc(CCN3CCOCC3)[nH]c2c1C` [Example B6, 4-[2-[4-[4-(4-isopropylpiperazin-1-yl)phenyl]-6,7-dimethyl-1H-pyrrolo[3,2-c]pyridin-2-yl]ethyl]morpholine], the “mean anti-dsDNA IgG titers after 6 weeks of treatment” value is “trend towards dose dependent reduction”.

For the compound `Cc1cc2c(cc(CCN3CCOCC3)n2C)c(-c2ccc(N3CCN(C(C)C)CC3)cc2)n1` [Example B11, 4-[2-[4-[4-(4-isopropylpiperazin-1-yl)phenyl]-1,6-dimethyl-pyrrolo[3,2-c]pyridin-2-yl]ethyl]morpholine], the “mean anti-dsDNA IgG titers after 6 weeks of treatment” value was “dose dependent reduction”.

Another test deals with T1, hTLR9 (Homo sapiens, UniProt Q9NR96).
T1 construct: expressed in transfected cells; host or cells: HEK-Blue-hTLR9 cells (HEK293)
T1 sequence (Q9NR96 26-1032): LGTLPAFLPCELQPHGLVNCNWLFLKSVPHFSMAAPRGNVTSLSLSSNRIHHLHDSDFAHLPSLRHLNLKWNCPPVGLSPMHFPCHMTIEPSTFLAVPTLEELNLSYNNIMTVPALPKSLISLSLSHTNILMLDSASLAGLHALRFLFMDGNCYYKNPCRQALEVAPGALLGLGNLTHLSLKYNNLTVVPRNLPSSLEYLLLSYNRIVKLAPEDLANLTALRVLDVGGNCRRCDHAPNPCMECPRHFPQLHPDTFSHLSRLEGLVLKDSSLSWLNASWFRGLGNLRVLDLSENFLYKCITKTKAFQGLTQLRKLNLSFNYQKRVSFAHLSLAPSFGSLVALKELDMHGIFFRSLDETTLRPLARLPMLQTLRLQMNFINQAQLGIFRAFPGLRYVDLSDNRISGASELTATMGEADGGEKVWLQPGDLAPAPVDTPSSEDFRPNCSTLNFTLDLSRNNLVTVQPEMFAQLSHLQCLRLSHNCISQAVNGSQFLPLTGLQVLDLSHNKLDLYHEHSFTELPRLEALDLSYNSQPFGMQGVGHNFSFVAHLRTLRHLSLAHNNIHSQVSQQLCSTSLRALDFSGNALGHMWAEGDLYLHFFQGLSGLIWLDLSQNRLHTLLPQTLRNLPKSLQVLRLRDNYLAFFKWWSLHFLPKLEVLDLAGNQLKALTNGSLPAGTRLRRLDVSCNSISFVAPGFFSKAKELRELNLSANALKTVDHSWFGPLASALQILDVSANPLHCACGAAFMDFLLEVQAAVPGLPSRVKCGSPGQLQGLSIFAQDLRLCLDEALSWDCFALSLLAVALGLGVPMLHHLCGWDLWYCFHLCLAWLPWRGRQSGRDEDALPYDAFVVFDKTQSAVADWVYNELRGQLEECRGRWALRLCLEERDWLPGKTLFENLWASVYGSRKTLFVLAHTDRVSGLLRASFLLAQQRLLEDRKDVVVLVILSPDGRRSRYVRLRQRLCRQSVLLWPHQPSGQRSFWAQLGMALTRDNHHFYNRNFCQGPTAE
The experiment in a line: hTLR9 antagonism (SEAP inhibition assay) in HEK-Blue-hTLR9 (HEK293) cells, ODN-2006 stimulated. It is filed as cell-based. The settings on record: 1 μM; SEAP, HEK-Blue-hTLR9 cells.
For `Cc1cc2c(cc(CCN3CCOCC3)n2C)c(C2CCC(N3CCN(C(C)C)CC3)CC2)n1` (stereo not shown) [Example B27, 4-[2-[4-[4-(4-isopropylpiperazin-1-yl)cyclohexyl]-1,6-dimethyl-pyrrolo[3,2-c]pyridin-2-yl]ethyl]morpholine], the “hTLR9 inhibitory activity (% at 1 μM)” value is 95.8%.

Staying with this test, now noted: HEK-Blue hTLR9, 1 μM; SEAP, HEK-Blue-hTLR9 cells; read-out: hTLR9 inhibitory activity (% at 1 μM).
As to `Cc1nc(-c2ccc(N3CCN(C(C)C)CC3)cc2)c2cc(CCN3CCOCC3)[nH]c2c1C` [Example B6, 4-[2-[4-[4-(4-isopropylpiperazin-1-yl)phenyl]-6,7-dimethyl-1H-pyrrolo[3,2-c]pyridin-2-yl]ethyl]morpholine], the inhibition at 1 µM is 79.7%.

Turning to `CCN1CCN(c2ccc(-c3nc(C)c(C)c4[nH]c(CCN5CCOCC5)cc34)cc2)CC1` [Example B8, 4-[2-[4-[4-(4-ethylpiperazin-1-yl)phenyl]-6,7-dimethyl-1H-pyrrolo[3,2-c]pyridin-2-yl]ethyl]morpholine], the inhibition at 1 µM was found to be 93.7%.

For the compound `Cc1nc(-c2ccc(N3CCN(C(C)C)CC3)cc2)c2cc(CCN3CCCC3)[nH]c2c1C` [Example B10, 4-[4-(4-isopropylpiperazin-1-yl)phenyl]-6,7-dimethyl-2-(2-pyrrolidin-1-ylethyl)-1H-pyrrolo[3,2-c]pyridine], the inhibition at 1 µM is 93.1%.

With `Cc1cc2c(cc(CCN3CCOCC3)n2C)c(-c2ccc(N3CCN(C(C)C)CC3)cc2)n1` [Example B11, 4-[2-[4-[4-(4-isopropylpiperazin-1-yl)phenyl]-1,6-dimethyl-pyrrolo[3,2-c]pyridin-2-yl]ethyl]morpholine], the inhibition at 1 µM was 80%.

With `Cc1cc2c(cc(CCN3CCOCC3)n2C)c(-c2ccc(N3CCN(C(C)C)CC3)c(F)c2)n1` [Example B14, 4-[2-[4-[3-fluoro-4-(4-isopropylpiperazin-1-yl)phenyl]-1,6-dimethyl-pyrrolo[3,2-c]pyridin-2-yl]ethyl]morpholine], the inhibition at 1 µM worked out at 88.7%.

For `Cc1cc2c(cc(CCN3CCOCC3)n2C)c(-c2ccc(N3CCN(C(C)C)CC3)cc2C)n1` [Example B15, 4-[2-[4-[4-(4-isopropylpiperazin-1-yl)-2-methyl-phenyl]-1,6-dimethyl-pyrrolo[3,2-c]pyridin-2-yl]ethyl]morpholine], the inhibition at 1 µM amounted to 93.3%.

Regarding `Cc1cc2c(cc(CCN3CCOCC3)n2C)c(-c2ccc(N3CCN(C(C)C)CC3)c(C)c2)n1` [Example B16, 4-[2-[4-[4-(4-isopropylpiperazin-1-yl)-3-methyl-phenyl]-1,6-dimethyl-pyrrolo[3,2-c]pyridin-2-yl]ethyl]morpholine], the inhibition at 1 µM was determined as 91%.

As to `Cc1cc2c(cc(CCN3CCOCC3)n2C)c(-c2ccc(N3CCN(C(C)C)CC3)cc2C(F)(F)F)n1` [Example B17, 4-[2-[4-[4-(4-isopropylpiperazin-1-yl)-2-(trifluoromethyl)phenyl]-1,6-dimethyl-pyrrolo[3,2-c]pyridin-2-yl]ethyl]morpholine], the inhibition at 1 µM worked out at 91.5%.

Regarding `Cc1cc2c(cc(CCN3CCOCC3)n2C)c(-c2ccc(N3CCN(C(C)C)CC3)c(C(F)(F)F)c2)n1` [Example B18, 4-[2-[4-[4-(4-isopropylpiperazin-1-yl)-3-(trifluoromethyl)phenyl]-1,6-dimethyl-pyrrolo[3,2-c]pyridin-2-yl]ethyl]morpholine], the inhibition at 1 µM stood at 99.3%.

Take `Cc1cc2c(cc(CCN3CCOCC3)n2C)c(-c2ccc(N3CCN(C(C)C)CC3)cc2F)n1` [Example B19, 4-[2-[4-[2-fluoro-4-(4-isopropylpiperazin-1-yl)phenyl]-1,6-dimethyl-pyrrolo[3,2-c]pyridin-2-yl]ethyl]morpholine]: the inhibition at 1 µM turned out to be 100%.

Take `COc1cc(N2CCN(C(C)C)CC2)ccc1-c1nc(C)cc2c1cc(CCN1CCOCC1)n2C` [Example B20, 4-[2-[4-[4-(4-isopropylpiperazin-1-yl)-2-methoxy-phenyl]-1,6-dimethyl-pyrrolo[3,2-c]pyridin-2-yl]ethyl]morpholine]: the inhibition at 1 µM was found to be 100%.

`Cc1cc2c(cc(CCN3CCOCC3)n2C)c(-c2cccc(N3CCN(C(C)C)CC3)c2)n1` [Example B21, 4-[2-[4-[3-(4-isopropylpiperazin-1-yl)phenyl]-1,6-dimethyl-pyrrolo[3,2-c]pyridin-2-yl]ethyl]morpholine]: the inhibition at 1 µM was 100%.

As to `COc1cc(-c2nc(C)cc3c2cc(CCN2CCOCC2)n3C)ccc1N1CCN(C(C)C)CC1` [Example B22, 4-[2-[4-[4-(4-isopropylpiperazin-1-yl)-3-methoxy-phenyl]-1,6-dimethyl-pyrrolo[3,2-c]pyridin-2-yl]ethyl]morpholine], the inhibition at 1 µM was 99.7%.

Take `Cc1cc2c(cc(CCN3CCOCC3)n2C)c(-c2ccc(N3CCN(C(C)C)[C@@H](C)C3)cc2)n1` [Example B23, 4-[2-[4-[4-[(3S)-4-isopropyl-3-methyl-piperazin-1-yl]phenyl]-1,6-dimethyl-pyrrolo[3,2-c]pyridin-2-yl]ethyl]morpholine]: the inhibition at 1 µM was found to be 99.2%.

Take `Cc1cc2c(cc(CCN3CCOCC3)n2C)c(C2CCC(N3CCN(C(C)C)CC3)CC2)n1` (stereo not shown) [Example B26, 4-[2-[4-[4-(4-isopropylpiperazin-1-yl)cyclohexyl]-1,6-dimethyl-pyrrolo[3,2-c]pyridin-2-yl]ethyl]morpholine]: the inhibition at 1 µM came to 89.9%.

For the compound `Cc1cc2c(cc(CCN3CCOCC3)n2C)c(-c2ccc(C3CCN(C(C)C)CC3)cc2)n1` [Example B31, 4-[2-[4-[4-(1-isopropyl-4-piperidyl)phenyl]-1,6-dimethyl-pyrrolo[3,2-c]pyridin-2-yl]ethyl]morpholine], the inhibition at 1 µM turned out to be 99.4%.

As for `CC(C)N1CCN(c2ccc(-c3nccc4[nH]c(CCCN5CCOCC5)cc34)cc2)CC1` [Example C1, 4-[3-[4-[4-(4-isopropylpiperazin-1-yl)phenyl]-1H-pyrrolo[3,2-c]pyridin-2-yl]propyl]morpholine], the inhibition at 1 µM was 99.2%.

In the case of `CN1CCN(c2ccc(-c3nccc4[nH]c(CCCN5CCOCC5)cc34)cc2)CC1` [Example C2, 4-[3-[4-[4-(4-methylpiperazin-1-yl)phenyl]-1H-pyrrolo[3,2-c]pyridin-2-yl]propyl]morpholine], the inhibition at 1 µM is 100%.

For `Cc1cc2[nH]c(CCCN3CCOCC3)cc2c(-c2ccc(N3CCN(C(C)C)CC3)cc2)n1` [Example C3, 4-[3-[4-[4-(4-isopropylpiperazin-1-yl)phenyl]-6-methyl-1H-pyrrolo[3,2-c]pyridin-2-yl]propyl]morpholine], the inhibition at 1 µM was 94.8%.

As for `Cc1cc2[nH]c(CCCN3CCCCC3)cc2c(-c2ccc(N3CCN(C(C)C)CC3)cc2)n1` [Example C5, 4-[4-(4-isopropylpiperazin-1-yl)phenyl]-6-methyl-2-[3-(1-piperidyl)propyl]-1H-pyrrolo[3,2-c]pyridine], the inhibition at 1 µM was 94.7%.

On to `Cc1cc2c(cc(CCCN3CCOCC3)n2C)c(-c2ccc(N3CCN(C(C)C)CC3)cc2)n1` [Example C6, 4-[3-[4-[4-(4-isopropylpiperazin-1-yl)phenyl]-1,6-dimethyl-pyrrolo[3,2-c]pyridin-2-yl]propyl]morpholine], for which the inhibition at 1 µM worked out at 99.1%.
